SMILES strings stand for the structures.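 Protocol summary: plate cells (96-well), add compound at 5 concentrations, incubate 48 h, interpolate endpoints linearly. GI50 marks 50% less growth. TGI: concentration producing complete growth inhibition.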

Common to all, as to experiment: growth of human tumour cells (NCI), 48 h
Assay [1] deals with A549 NSCLC.
Assay [2] concerns HOP-92 NSCLC.
Assay [3] deals with MOLT-4 leukemia.
The test system of assay [4] is IGROV1 ovarian.
Assay [5] relates to SK-MEL-2 melanoma.
Assay [6] has as its system DU-145 prostate.
The subject of assay [7] is SK-MEL-5 melanoma.
For assay [8], the system named is 786-0 renal.
Assay [9] relates to HT29 colon.
Assay [10] deals with HL-60(TB) leukemia.

Take `COC(=O)c1ccc2c(c1)C(=O)c1c-2n(C)c(=O)c2cc(OC)c(OC)cc12`: the GI50 was over 50 µM in assay [1]; 18.8 µM in assay [2]; over 50 µM in assay [3]; 11.8 µM in assay [4]; 37.8 µM in [5]; over 50 µM in [6]. Besides, the GI50 was over 50 µM in assay [7], 21.8 µM in [8] and over 50 µM in assay [9]. Further, the TGI in assay [1], in assay [2], in assay [3], in [4], in assay [5] and in assay [6] was over 50 µM each time. For the same compound, the TGI in assay [7], in assay [8] and in [9] was over 50 µM in each case.

For the compound `O=C(NNc1ccc(F)cc1)C1CCC(CNS(=O)(=O)c2ccc(Cl)c(Cl)c2)CC1` (stereo not given), the GI50 is 0.842 µM in assay [1]; 1.82 µM in assay [10]; 7.35 µM in assay [2]; 6.79 µM in assay [4]; over 50 µM in assay [5]; 5.52 µM in assay [6]. Besides, the GI50 in assay [7] is 10.8 µM; in assay [8], 17.9 µM. The TGI in assay [1] was 4.93 µM; in assay [10], 9.57 µM; in assay [2], 37.5 µM; in [4], over 50 µM; in assay [5], over 50 µM; in assay [6] it was over 50 µM. Besides, the TGI in assay [7] was 33.1 µM; in assay [8], over 50 µM.

For `CSCC[C@H](NC(=O)[C@H](CC(C)C)NC(=O)[C@@H](Cc1ccccc1)NC(=O)CNC(=O)[C@@H](NC(=O)[C@H](C)NC(=O)[C@H](Cc1c[nH]c2ccccc12)NC(=O)[C@H](CCC(N)=O)NC(=O)[C@H](N)CC(N)=O)C(C)C)C(N)=O`, the TGI in [1], in assay [10], in assay [2], in assay [3], in assay [4] and in assay [6] was over 12.5 µM each time. The TGI in [7], in assay [8] and in assay [9] was over 12.5 µM in each case.

Take `O=C1C(=O)c2ccccc2C(O)=C1CCCc1ccc(C2CCCC2)cc1`: the GI50 in [1] was 3.36 µM; in assay [10] it was 2.9 µM; in assay [3], 3.72 µM; in assay [4], 3.72 µM; in assay [5], 7.2 µM; in assay [6], 6.9 µM. Also, the GI50 in [7] was 3.79 µM; in [8] it was 4.02 µM; in assay [9], 5.43 µM. The TGI in assay [1] worked out at 32.9 µM; in [10], 6.92 µM; in assay [3] it was 12.3 µM; in [4], 18.4 µM; in assay [5] it was 32.7 µM; in assay [6], 54.9 µM. Also, the values for the TGI in [7], in assay [8] and in assay [9] were 14.5 µM, 21.4 µM and 19.5 µM, respectively.

Turning to `CCCCCc1cc[n+](CC(=O)c2ccc([N+](=O)[O-])cc2)cc1`, the GI50 was 4.39 µM in assay [1]; 2.2 µM in assay [2]; 10.1 µM in assay [4]; 2.7 µM in assay [5]; 8.72 µM in [6]; 1.95 µM in assay [7]. Further, the values for the GI50 in assay [8] and in assay [9] were 20.1 µM and 2.39 µM, respectively. Moreover, the TGI in assay [1] is 15 µM; in assay [2] it was 9.84 µM; in assay [4], 24.4 µM; in [5], 8.66 µM; in assay [6] it was 37.8 µM; in assay [7] it was 4.56 µM. Moreover, the results for the TGI in assay [8] and in [9] were 74.2 µM and 8.32 µM, respectively.

For the compound `CCN(CC)CCOc1ccc(/C=C2\C[C@H]3[C@H]4CC=C5C[C@@H](O)CC[C@]5(C)[C@H]4CC[C@]3(C)[C@H]2O)cc1OC`, the GI50 in assay [1] was 10.7 µM; in assay [10] it was 10.4 µM; in assay [3], 10.5 µM; in [4], 1.23 µM; in assay [5], 0.135 µM; in assay [6] it was 3.86 µM. The figures for the GI50 in assay [7], in assay [8] and in assay [9] were 0.625 µM, 5.09 µM and 10.9 µM, respectively. Also, the TGI in assay [1] was 25 µM; in [10], 22.5 µM; in assay [3], over 50 µM; in [4] it was over 50 µM; in assay [5] it was over 50 µM; in [6], 10.2 µM. In addition, the TGI was 11.1 µM in assay [7], 16.1 µM in assay [8] and over 50 µM in assay [9].

`c1ccc(CN2CCC3(CC2)SSC2(CCN(Cc4ccccc4)CC2)SS3)cc1`: the TGI in assay [1], in [2], in assay [3], in assay [4], in [5] and in assay [6] was over 100 µM throughout. Besides, the TGI in [7], in [8] and in [9] was over 100 µM in each case.

Consider `COc1ccc2c(c1)C1OCCNC1CC2` (stereo not given), for which the TGI in [1], in assay [10], in assay [3], in assay [4], in [5] and in assay [6] was over 100 µM throughout. The TGI in [7], in assay [8] and in assay [9] was over 100 µM throughout.

Turning to `Cn1cc(-c2csc(-c3cn(CCCCN4CCCCC4)c4ccc(F)cc34)n2)c2cccnc21`, the GI50 in [1] is 1.67 µM; in assay [2] it was 4.81 µM; in [5], 2.3 µM; in assay [6] it was 1.76 µM; in assay [8], 1.65 µM; in [9], 1.7 µM. Moreover, the TGI in assay [1] was 3.04 µM; in assay [2], 27.8 µM; in assay [5], 5.98 µM; in assay [6], 3.14 µM; in assay [8], 3.02 µM; in assay [9] it was 3.16 µM.

In the case of `CC(=O)c1ccc(Nc2nc(Nc3ccc(F)cc3)nc(Nc3ccc(F)cc3)n2)cc1`, the GI50 in assay [1] is 5.81 µM; in [2] it was 5.64 µM; in assay [3], 4.39 µM; in assay [4] it was 9.49 µM; in assay [5] it was 10.1 µM; in assay [6], 14.8 µM. In addition, the GI50 is 7.07 µM in assay [7], 14.1 µM in assay [8] and 5.79 µM in assay [9]. The TGI in assay [1] is 32.5 µM; in assay [2], 31.5 µM; in assay [3], over 100 µM; in assay [4], 28.2 µM; in assay [5], 40.3 µM; in assay [6] it was 55.7 µM. For the same compound, the figures for the TGI in assay [7], in assay [8] and in assay [9] were 35.8 µM, 32.5 µM and over 100 µM, respectively.

In the case of `CO[C@]12C=C/C(=C(/C(=O)OCc3cccnc3)C(=O)CCCCCCCC[C@@]3(OC)C=C/C(=C(/C(=O)OCc4cccnc4)C(=O)CCCCCCCC1)O3)O2`, the GI50 in assay [1] was 1.65 µM; in assay [10], 1.37 µM; in [2], 1.86 µM; in assay [4] it was 1.75 µM; in [5], 1.34 µM; in [6], 1.76 µM. Moreover, the GI50 is 0.856 µM in [7], 1.32 µM in [8] and 1.7 µM in assay [9]. In addition, the TGI in assay [1] came to 9.2 µM; in [10], 4.25 µM; in assay [2] it was 4.83 µM; in [4] it was 14.7 µM; in [5], 4 µM; in assay [6] it was 12.7 µM. In addition, the values for the TGI in [7], in assay [8] and in assay [9] were 1.64 µM, 4.71 µM and over 50 µM, respectively.

Regarding `C[C@]12CC[C@H]3[C@@H](CCC4=CC(=O)CC[C@@]43C)[C@@H]1CC[C@@H]2C(=O)COS(=O)(=O)c1ccc(Br)cc1`, the TGI in assay [1] was 44.6 µM; in [10] it was 21.9 µM; in assay [2] it was 18.3 µM; in assay [4], 3.28 µM; in assay [5] it was 22.3 µM; in assay [6], 34.4 µM. Also, the TGI in [7] is 47.9 µM; in assay [8] it was over 22.4 µM; in assay [9], 30.3 µM.

On to `N#Cc1cc([N+](=O)[O-])ccc1NC(=O)C(F)(F)F`, for which the TGI in [1], in [10], in [2], in [3], in [4] and in assay [5] was over 100 µM each time. For the same compound, the TGI in assay [7] was over 100 µM; in assay [8], over 89.5 µM; in [9] it was over 67.6 µM.

As to `CCOC(=O)c1ccc2c(c1)nc(/C=C/c1ccc(Cl)cc1)n2-c1cc(C(C)(C)C)[nH]n1`, the GI50 in assay [1] was 3.64 µM; in assay [10], 39.9 µM; in [3], 4.74 µM; in assay [4], 5.09 µM; in assay [6], 21.5 µM; in assay [7] it was 3.63 µM. Besides, the GI50 in [8] was 2.98 µM; in [9], 11.3 µM. For the same compound, the TGI in assay [1] was 19.7 µM; in assay [10] it was over 100 µM; in [3] it was over 100 µM; in [4], 33.8 µM; in assay [6], over 100 µM; in assay [7], 28.3 µM. The TGI was 9.29 µM in assay [8] and over 100 µM in [9].

The values above are taken from PubChem BioAssay (NCI).
